Reference: patent US20040010001A1, “Methods and compositions for modulating cell proliferation and cell death” (priority 1999, published 2004)
Read-outs that look alike come from different tables or passages of the source.

Tests used:
[1] = Jodrell et al (1994); cited from earlier work
rat MAT-LyLu tumor cells [2] = experiment: Cytotoxicity of suramin alone, reduction of BrdU incorporation; format: cell-based; details: read-out: IC50, suramin concentration required to result in 50% reduction in BrdU incorporation
[3] = test system: Human prostate PC3 tumor cells; experiment: cells; format: cell-based; details: read-out: IC50, suramin concentration required to result in 50% reduction in BrdU incorporation
Procedure: PC3 and PC3-LN tumor cells. […] […].
Cells are harvested from subconfluent cultures using trypsin and resuspended in fresh medium before plating. […] Cells are plated in 96 well microtiter plates at a density such that confluence would not be achieved at the end of the drug treatment period. Cells are allowed to attach to the plate surface by growing in drug-free medium for 20 to 24 hr. […] The drug effect should be measured as inhibition of BrdU incorporation, e.g., according to the Cell Proliferation ELISA BrdU (Boehringer Mannheim).

in vivo = details: mouse, iv, 10 mg/kg
Procedure: (§1) Animal care was in accordance with the guidelines at the Ohio State University. Several human tumor models were used, including (a) lung metastases derived from intravenous injection of human PC3-LN tumor cells, (b) lung tumors derived from direct injection of human PC3 cells in lungs, and (c) subcutaneously implanted PC3 tumors. Four studies were performed. In all studies, drug treatment was administered intravenously via a tail vein, after the tumor was established. The first and second studies used the intravenous PC3-LN lung metastasis model. Briefly, human PC3-LN cells ([…] in 0.1 ml physiologic saline) were injected intravenously, via a tail vein, into immunodeficient mice. […] Treatment was given twice weekly for three weeks. […] The lung surface area (counted as number of pixel) occupied by the tumor was calculated as a fraction of the total lung area, using Adobe PhotoShop. The number of tumor cells in residual tumors and the fraction of apoptotic cells in each tumor were also determined microscopically. […] This was determined by counting the number of non-apoptotic tumor cells in randomly selected microscopic fields at 400× magnification. […] In the case of combination therapy where fewer than 5 tumor nodules remained per animal, all residual cells (between 20 to 600 cells per animal) were counted.

rat MAT-LyLu tumor cells [4] = experiment: Reversal of CM-induced resistance by FGF antibodies and suramin, BrdU incorporation; format: cell-based; details: CM of histocultures of lung metastases
Procedure: The source of CM was lung histocultures for the aFGF experiment, and early monolayer lung cultures for the bFGF experiment. The study used four controls: no CM (left solid curves, open circles); addition of 5 μg/ml aFGF or bFGF antibody but no CM (inverted filled triangle, overlaps with the left control curve); addition of CM but no antibody (right solid curves, open square); addition of CM plus a nonspecific antibody, IgG (5 μg/ml, filled diamond, overlaps with the right CM-control curve). Dotted curves, from right to left, addition of aFGF or bFGF antibody concentrations of 0.05 μg/ml (filled circle); 0.1 μg/ml (filled square); 1 or 0.5 μg/ml (filled triangle); and 5 μg/ml (open inverted triangle). […] Similar results were also found for human PC3 prostate tumor cells.
The first study used specific inhibitors of extracellular aFGF and bFGF, i.e., monoclonal antibodies (FIG. 2A). […] In the presence of the active CM, the bFGF antibody produced a concentration-dependent reversal of the CM-induced chemoresistance, with complete reversal by 5 microgram/ml antibody, whereas a nonspecific antibody (i.e., non-immune rabbit IgG) had no effect. For aFGF, the antibody treatment partially reversed the CM-induced resistance; the maximum reversal was about 60% that was obtained with 1 microgram/ml antibody with no significant additional reversal at a 5-fold higher concentration. The second study evaluated the effect of removing aFGF and/or bFGF from the active CM by immunoprecipitation. Removal of bFGF abolished the resistance, whereas removal of aFGF only partially reversed the CM effect. These two studies indicate that both aFGF and bFGF were involved in the resistance, but had different roles.
This study was performed using the rat MAT-LyLu tumor cells as the model tumor cells and using doxorubicin and paclitaxel as the model anticancer agents. The CM used to induce resistance was collected from histocultures of lung metastases (see Table 1). Five microgram/ml anti-bFGF antibody was added.

human PC3 lung tumors = experiment: Lung tumors established by direct injection of PC3 cells into the lungs of immunodeficient mice; format: in vivo; details: suramin alone, three doses of 20 mg/kg (n=3)
Procedure: as §1

[5] = test system: human PC3-LN lung metastases
Procedure: Animal care was in accordance with the guidelines at the Ohio State University. Several human tumor models were used, including (a) lung metastases derived from intravenous injection of human PC3-LN tumor cells, (b) lung tumors derived from direct injection of human PC3 cells in lungs, and (c) subcutaneously implanted PC3 tumors. Four studies were performed. In all studies, drug treatment was administered intravenously via a tail vein, after the tumor was established. The first and second studies used the intravenous PC3-LN lung metastasis model. Briefly, human PC3-LN cells ([…] in 0.1 ml physiologic saline) were injected intravenously, via a tail vein, into immunodeficient mice. […] Treatment was given twice weekly for three weeks. […] Three days after completion of drug treatments, animals were euthanized and their lungs removed, fixed in Bouin's solution to visualize tumor nodules, and then processed for histologic evaluation. […] The lung surface area (counted as number of pixel) occupied by the tumor was calculated as a fraction of the total lung area, using Adobe PhotoShop. The number of tumor cells in residual tumors and the fraction of apoptotic cells in each tumor were also determined microscopically. Because apoptotic cells disappear over time, a second measure of the extent of apoptosis was the density of non-apoptotic cells in the residual tumors. This was determined by counting the number of non-apoptotic tumor cells in randomly selected microscopic fields at 400× magnification. […] In the case of combination therapy where fewer than 5 tumor nodules remained per animal, all residual cells (between 20 to 600 cells per animal) were counted.

[6] = test system: rat MAT-LyLu tumor cells, human prostate PC3 tumor cells, PC3-LN cells; experiment: Reversal of CM/FGF-induced resistance by suramin; format: cell-based
Procedure: The study was performed using rat MAT-LyLu tumor cells (shown here) and human prostate PC3 and PC3-LN tumor cells. The cytotoxic effect was detected by measuring the changes in BrdU incorporation in treated samples relative to control samples.

[7] = test system: human prostate PC3-LN tumor cells; experiment: cells; format: cell-based; details: read-out: IC50, suramin concentration required to result in 50% reduction in BrdU incorporation
subcutaneous PC3 tumors = details: suramin 10 mg/kg, doxorubicin 5 mg/kg, twice weekly for 3 weeks
Procedure: Briefly, PC3 cells (5×10^6 cells) were injected subcutaneously.

clinical = details: human, plasma, 240 mg/m^2
[8] = doxorubicin study: suramin 10 mg/kg, doxorubicin 5 mg/kg, intravenous twice weekly for three weeks
[9] = paclitaxel study: suramin 10 mg/kg, paclitaxel 15 mg/kg, intravenous twice weekly for three weeks
[10] = suramin 10 mg/kg, doxorubicin 5 mg/kg, intravenous twice weekly for three weeks

For `Cc1ccc(C(=O)Nc2ccc(S(=O)(=O)O)c3cc(S(=O)(=O)O)cc(S(=O)(=O)O)c23)cc1NC(=O)c1cccc(NC(=O)Nc2cccc(C(=O)Nc3cc(C(=O)Nc4ccc(S(=O)(=O)O)c5cc(S(=O)(=O)O)cc(S(=O)(=O)O)c45)ccc3C)c2)c1` [Suramin], which total body clearance [1] is on record?
The total body clearance was 0.0095 liter/hour/m^2.

What about the IC50 (rat MAT-LyLu tumor cells [2]) of the same compound?
The IC50 was 235 µM.

What about the IC50 [3] of the same compound?
The IC50 was 93 µM.

What about the concentration at 72 h (in vivo) of the same compound?
Its concentration at 72 h is about 10 µM.

What about the “suramin concentration that completely inhibited the bFGF-induced resistance” value (rat MAT-LyLu tumor cells [4]) of the same compound?
The value was 1 to 2 µM.

And the “animals free of tumors” value (human PC3 lung tumors)?
Its value is “No animals”.

And the “% Apoptotic cells per tumor” value [5, 8]?
The value was 10 ± 7%.

What about the “Density of nonapoptotic cells in residual tumors, cells/field” value [5, 8] of the same compound?
The value was 139 ± 30 cells/field.

What about the “% Apoptotic cells per tumor” value [5, 9] of the same compound?
The value was 4 ± 3%.

And the “Density of nonapoptotic cells in residual tumors, cells/field” value [5, 9]?
The value was 185 ± 104 cells/field.

And the “antitumor effect and toxicity of suramin alone” value ([5]; suramin 10 mg/kg alone)?
The value was “no significant antitumor effect, nor toxicity”.

What about the “% Lung surface area occupied by tumor” value [5, 10] of the same compound?
Its value is 7 ± 3%.

What about the “% Tumor-free animals” value [5, 10] of the same compound?
Its value is 0%.

What about the “concentration needed to fully reverse the FGF-induced resistance” value [6] of the same compound?
The value was 1 to 15 µM.

What about the IC50 [7] of the same compound?
The IC50 was 98 µM.

And the “effect on tumor growth” value (subcutaneous PC3 tumors)?
The value was “no antitumor activity”.

What about the concentration at 0 h (clinical) of the same compound?
Its concentration at 0 h is about 90 µg/mL.

And the concentration at 96 h (clinical)?
Its concentration at 96 h is about 18 µg/mL.
